Assay results: patent US12691104B2, “Compositions containing nicotinamide and vitamin B6 and methods of using such compositions for treating sarcopenia and frailty” (SOCIETE DES PRODUITS NESTLE S.A., priority 2020, dated 2026)

System: Human primary myoblasts
Experiment: Myogenic amplification and commitment of muscle stem cells (Pax7/MyoD staining, image quantification)
Format: cell-based
Conditions: donors 1 and 2 pooled, dose response, 96 hours, control DMSO 1%; for proportion of MyoD+ cells, fold change compared to the control condition: FIG. 1B/2B
Experimental: Human Skeletal Muscle Myoblasts were purchased from Lonza (https://bioscience.lonza.com). These cells were isolated from the upper arm or leg muscle tissue of normal donors and used after the second passage. Several donors were tested to ensure cell viability and purity before selecting the final donors, which are a person (refer thereafter as Donor 1), a person (refer thereafter as Donor 2) and a person (refer thereafter as Donor 3). Human primary myoblasts were seeded in 384 well plates at a density of 1′000 cells per well in skeletal muscle growth medium (SKM-M, AMSbio). For treatment, compounds were directly added to the myoblast cultures 16 hours after initial plating. All cultures were then grown for 96 hours. Cells were stained for Pax7 and MyoD expression using antibodies directed against Pax7 and MyoD and counterstained with Hoechst 33342 to visualize cell nuclei. Pax7+ cells are defined as cells that express Pax7 regardless of MyoD expression. […] Image acquisition was performed using the ImageXpress (Molecular Devices) platform. Custom module analysis based on Multi-Wavelength Cell Scoring of the MetaXpress software was used for quantification. *, **, ***, **** indicates difference from the control, One-way ANOVA, with p<0.05, p<0.01, p<0.001, p<0.0001, respectively. Data are presented as Mean+/— SEM. Human primary myoblasts from different donors (donor 1, donor 2 or donor 3) were seeded in 384 well plates at a density of 1′000 cells per well in skeletal muscle growth medium (SKM-M, AMSbio). For treatment, compounds were directly added to the myoblast cultures 16 hours after initial plating. All cultures were then grown for 96 hours. Cells were stained for Pax7 and MyoD expression using antibodies directed against Pax7 and MyoD and counterstained with Hoechst 33342 to visualize cell nuclei. Pax7+ cells are defined as cells that express Pax7 regardless of MyoD expression. […] Custom module analysis based on Multi-Wavelength Cell Scoring of the MetaXpress software was used for quantification. […]

Row | SMILES | proportion of MyoD+ cells, fold change compared to the control condition | proportion of Pax7+ cells, fold change compared to the control condition (FIG. 1A/2A)
1 | Cc1ncc(CO)c(CO)c1O [Pyridoxine] | increasing the proportion of differentiating (MyoD+) cells in a dose dependent manner | 
2 | NC(=O)c1cccnc1 [Nicotinamide] | increasing the proportion of both amplifying (Pax7+) and differentiating (MyoD+) cells in a dose dependent manner | increasing the proportion of both amplifying (Pax7+) and differentiating (MyoD+) cells in a dose dependent manner
